Source: paper PMC11459959, “Discovery of new acetamide derivatives of 5-indole-1,3,4-oxadiazol-2-thiol as inhibitors of HIV-1 Tat-mediated viral transcription” (Antimicrobial Agents and Chemotherapy, 2024)

Assays:
[1] = tested on: HIV-1NL4-3 IRES-eGFP-nef+; test: eGFP-encoding HIV-1 infection of TZM-bl cells; type: cell-based; settings: 9, 10, 13 1.5 μM, 20, 21, 22 4 μM, seliciclib 10 µM, triptolide 5 nM, DTG 2 nM, EFV 2 nM, 2 days
[2] = tested on: Tat-mediated LTR transcription; test: Dual-reporter assay, F-Luc (Tat-mediated LTR transcription) in bl-DTR cells; type: cell-based, HIV-1; settings: Human immunodeficiency virus 1, 24 h, read-out: IC50 of F-Luc (Tat)
Outline: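 bl-DTR cells (TZM-bl with Dox-inducible Flag-Tat86 and R-Luc cassettes; 1 × 10^4) were pretreated with twofold compound dilutions, then induced with 50 ng/mL doxycycline. After 24 h, firefly luciferase (Tat-driven LTR) and Renilla luciferase (general expression) were read by dual-luciferase assay.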

SMILES | inhibition of viral-expressed eGFP signal [1] | IC50 [2] [nM]
CC(C)[C@]12O[C@H]1[C@@H]1O[C@]13[C@]1(O[C@H]1C[C@H]1C4=C(CC[C@@]13C)C(=O)OC4)[C@@H]2O [triptolide, reference compound] | remarkably inhibited | 0.82 ± 0.02
C[C@@H]1CCO[C@H]2Cn3cc(C(=O)NCc4ccc(F)cc4F)c(=O)c(O)c3C(=O)N12 [DTG, dolutegravir, reference compound] | remarkably inhibited | –
O=C1Nc2ccc(Cl)cc2[C@@](C#CC2CC2)(C(F)(F)F)O1 [EFV, efavirenz, reference compound] | remarkably inhibited | –
Cc1[nH]c2ccc(-c3nnc(SCC(=O)N4CCCCC4)o3)cc2c1C [Compound 9, 2-((5-(2,3-Dimethyl-1H-indol-5-yl)-1,3,4-oxadiazol-2-yl)thio)-1-(piperidin-1-yl)ethan-1-one] | remarkably inhibited | 140
Cc1[nH]c2ccc(-c3nnc(SCC(=O)N4CCCC4)o3)cc2c1C [Compound 13, 2-((5-(2,3-Dimethyl-1H-indol-5-yl)-1,3,4-oxadiazol-2-yl)thio)-1-(pyrrolidin-1-yl)ethan-1-one] | remarkably inhibited | 300 ± 30
